Row | melting point [°C] | SMILES
1 | 148 to 151 | CC(C)n1nc(-c2cnc(N(C(=O)c3ccc(F)cc3)C(=O)c3ccc(F)cc3)nc2-c2ccccc2)ccc1=O [Example 179, 4-Fluoro-N-(4-fluorobenzoyl)-N-[5-(1-isopropyl-6-oxo-1,6-dihydro-3-pyridazinyl)-4-phenyl-2-pyrimidinyl]benzamide]
2 | 110 | CC(C)n1nc(-c2cnc(N(C(=O)c3ccc(Cl)cc3)C(=O)c3ccc(Cl)cc3)nc2-c2ccccc2)ccc1=O [Example 180, 4-Chloro-N-(4-chlorobenzoyl)-N-[5-(1-isopropyl-6-oxo-1,6-dihydro-3-pyridazinyl)-4-phenyl-2-pyrimidinyl]benzamide]
3 | 159 | CC(C)n1nc(-c2cnc(N(C(=O)c3ccc(C(F)(F)F)cc3)C(=O)c3ccc(C(F)(F)F)cc3)nc2-c2ccccc2)ccc1=O [Example 183, N-[5-(1-isopropyl-6-oxo-1,6-dihydro-3-pyridazinyl)-4-phenyl-2-pyrimidinyl]-4-(trifluoromethyl)-N-[4-(trifluoromethyl)benzoyl]benzamide]
4 | 204 | CCOc1ccc(-c2nc(N)ncc2-c2ccc(=O)n(C(C)C)n2)cc1 [Example 188, 6-[2-amino-4-(4-ethoxyphenyl)-5-pyrimidinyl]-2-isopropyl-3(2H)-pyridazinone]
5 | 185 | CCOc1ccccc1-c1nc(N)ncc1-c1ccc(=O)n(C(C)C)n1 [Example 189, 6-[2-Amino-4-(2-ethoxyphenyl)-5-pyrimidinyl]-2-isopropyl-3(2H)-pyridazinone]
6 | 142 | CCOc1cccc(-c2nc(N)ncc2-c2ccc(=O)n(C(C)C)n2)c1 [Example 190, 6-[2-Amino-4-(3-ethoxyphenyl)-5-pyrimidinyl]-2-isopropyl-3(2H)-pyridazinone]
7 | 175 | CCCOc1ccc(-c2nc(N)ncc2-c2ccc(=O)n(C(C)C)n2)cc1 [Example 191, 6-[2-Amino-4-(4-propoxyphenyl)-5-pyrimidinyl]-2-isopropyl-3(2H)-pyridazinone]
8 | 145 | CCCOc1ccccc1-c1nc(N)ncc1-c1ccc(=O)n(C(C)C)n1 [Example 192, 6-[2-Amino-4-(2-propoxyphenyl)-5-pyrimidinyl]-2-isopropyl-3(2H)-pyridazinone]
9 | 122 | CCCOc1cccc(-c2nc(N)ncc2-c2ccc(=O)n(C(C)C)n2)c1 [Example 193, 6-[2-Amino-4-(3-propoxyphenyl)-5-pyrimidinyl]-2-isopropyl-3(2H)-pyridazinone]
10 | 164 | CC(C)Oc1ccc(-c2nc(N)ncc2-c2ccc(=O)n(C(C)C)n2)cc1 [Example 194, 6-[2-Amino-4-(4-isopropoxyphenyl)-5-pyrimidinyl]-2-isopropyl-3(2H)-pyridazinone]
11 | 143 | CC(C)Oc1cccc(-c2nc(N)ncc2-c2ccc(=O)n(C(C)C)n2)c1 [Example 196, 6-[2-Amino-4-(3-isopropoxyphenyl)-5-pyrimidinyl]-2-isopropyl-3(2H)-pyridazinone]
12 | 155 | CC(C)CCOc1ccccc1-c1nc(N)ncc1-c1ccc(=O)n(C(C)C)n1 [Example 204, 6-{2-Amino-4-(2-(isopentyloxy)phenyl]-5-pyrimidinyl}-2-isopropyl-3(2H)-pyridazinone]
13 | 97 | CC(C)CCOc1cccc(-c2nc(N)ncc2-c2ccc(=O)n(C(C)C)n2)c1 [Example 205, 6-{2-Amino-4-[3-(isopentyloxy)phenyl]-5-pyrimidinyl}-2-isopropyl-3(2H)-pyridazinone]
14 | 184 | CCCCCCOc1ccc(-c2nc(N)ncc2-c2ccc(=O)n(C(C)C)n2)cc1 [Example 206, 6-{2-Amino-4-[4-(hexyloxy)phenyl]-5-pyrimidinyl}-2-isopropyl-3(2H)-pyridazinone]
15 | 92 | CCCCCCOc1ccccc1-c1nc(N)ncc1-c1ccc(=O)n(C(C)C)n1 [Example 207, 6-{2-Amino-4-[2-(hexyloxy)phenyl]-5-pyrimidinyl}-2-isopropyl-3(2H)-pyridazinone]
16 | 121 | CCCCCCOc1cccc(-c2nc(N)ncc2-c2ccc(=O)n(C(C)C)n2)c1 [Example 208, 6-{2-Amino-4-[3-(hexyloxy)phenyl]-5-pyrimidinyl}-2-isopropyl-3(2H)-pyridazinone]
17 | 200 | CC(C)n1nc(-c2cnc(N)nc2-c2ccc(OCCF)cc2)ccc1=O [Example 209, 6-{2-Amino-4-[4-(2-fluoroethoxy)phenyl]-5-pyrimidinyl}-2-isopropyl-3(2H)-pyridazinone]
18 | 171 | CC(C)n1nc(-c2cnc(N)nc2-c2ccccc2OCCF)ccc1=O [Example 210, 6-{2-Amino-4-[2-(2-fluoroethoxy)phenyl]-5-pyrimidinyl}-2-isopropyl-3(2H)-pyridazinone]
19 | 123 | CC(C)n1nc(-c2cnc(N)nc2-c2cccc(OCCF)c2)ccc1=O [Example 211, 6-{2-Amino-4-[3-(2-fluoroethoxy)phenyl]-5-pyrimidinyl}-2-isopropyl-3(2H)-pyridazinone]
20 | 200 | CC(C)n1nc(-c2cnc(N)nc2-c2ccccc2OCCCF)ccc1=O [Example 215, 6-{2-Amino-4-[2-(3-fluoropropoxy)phenyl]-5-pyrimidinyl}-2-isopropyl-3(2H)-pyridazinone]
21 | 123 | CC(C)n1nc(-c2cnc(N)nc2-c2cccc(OCCCF)c2)ccc1=O [Example 216, 6-{2-Amino-4-[3-(3-fluoropropoxy)phenyl]-5-pyrimidinyl}-2-isopropyl-3(2H)-pyridazinone]

More lines, now with the values behind:

Row | SMILES | melting point [°C]
22 | CC(C)n1nc(-c2cnc(NC(=O)C3CC3)nc2-c2ccccc2)ccc1=O [Example 167, N-[5-(1-isopropyl-6-oxo-1,6-dihydro-3-pyridazinyl)-4-phenyl-2-pyrimidinyl]cyclopropanecarboxamide] | 143 to 147
23 | COC(=O)Nc1ncc(-c2ccc(=O)n(C(C)C)n2)c(-c2ccccc2)n1 [Example 168, Methyl 5-(1-isopropyl-6-oxo-1,6-dihydro-3-pyridazinyl)-4-phenyl-2-pyrimidinylcarbamate] | 197 to 200
24 | CC(C)n1nc(-c2cnc(NC(=O)c3ccccc3)nc2-c2ccccc2)ccc1=O [Example 169, N-[5-(1-isopropyl-6-oxo-1,6-dihydro-3-pyridazinyl)-4-phenyl-2-pyrimidinyl]benzamide] | 116 to 120
25 | CC(C)n1nc(-c2cnc(NC(=O)c3ccc(Cl)cc3)nc2-c2ccccc2)ccc1=O [Example 171, 4-Chloro-N-[5-(1-isopropyl-6-oxo-1,6-dihydro-3-pyridazinyl)-4-phenyl-2-pyrimidinyl]benzamide] | 100
26 | COc1ccc(C(=O)Nc2ncc(-c3ccc(=O)n(C(C)C)n3)c(-c3ccccc3)n2)cc1 [Example 172, N-[5-(1-isopropyl-6-oxo-1,6-dihydro-3-pyridazinyl)-4-phenyl-2-pyrimidinyl]-4-methoxybenzamide] | 171 to 174
27 | Cc1ccc(C(=O)Nc2ncc(-c3ccc(=O)n(C(C)C)n3)c(-c3ccccc3)n2)cc1 [Example 173, N-[5-(1-isopropyl-6-oxo-1,6-dihydro-3-pyridazinyl)-4-phenyl-2-pyrimidinyl]-4-methylbenzamide] | 116
28 | CC(C)n1nc(-c2cnc(NC(=O)c3ccc(C(F)(F)F)cc3)nc2-c2ccccc2)ccc1=O [Example 174, N-[5-(1-isopropyl-6-oxo-1,6-dihydro-3-pyridazinyl)-4-phenyl-2-pyrimidinyl]-4-(trifluoromethyl)benzamide] | 160 to 163
29 | CC(C)n1nc(-c2cnc(NC(=O)c3cccnc3)nc2-c2ccccc2)ccc1=O [Example 175, N-[5-(1-isopropyl-6-oxo-1,6-dihydro-3-pyridazinyl)-4-phenyl-2-pyrimidinyl)nicotinamide] | 163 to 167
30 | CC(C)n1nc(-c2cnc(NC(=O)C(C)(C)C)nc2-c2ccccc2)ccc1=O [Example 176, N-[5-(1-isopropyl-6-oxo-1,6-dihydro-3-pyridazinyl)-4-phenyl-2-pyrimidinyl]-2,2-dimethylpropanamide] | 138 to 141
31 | CC(C)n1nc(-c2cnc(NC(=O)OCC(Cl)(Cl)Cl)nc2-c2ccccc2)ccc1=O [Example 177, 2,2,2-trichloroethyl 5-(1-isopropyl-6-oxo-1,6-dihydro-3-pyridazinyl)-4-phenyl-2-pyrimidinylcarbamate] | 158 to 162
32 | CC(C)n1nc(-c2cnc(N(C(=O)c3ccccc3)C(=O)c3ccccc3)nc2-c2ccccc2)ccc1=O [Example 178, N-benzoyl-N-[5-(1-isopropyl-6-oxo-1,6-dihydro-3-pyridazinyl)-4-phenyl-2-pyrimidinyl]benzamide] | 121 to 125
33 | CCCCOc1ccc(-c2nc(N)ncc2-c2ccc(=O)n(C(C)C)n2)cc1 [Example 197, 6-[2-Amino-4-(4-butoxyphenyl)-5-pyrimidinyl]-2-isopropyl-3(2H)-pyridazinone] | 143
34 | CCCCOc1ccccc1-c1nc(N)ncc1-c1ccc(=O)n(C(C)C)n1 [Example 198, 6-[2-Amino-4-(2-butoxyphenyl)-5-pyrimidinyl]-2-isopropyl-3(2H)-pyridazinone] | 149
35 | CCCCOc1cccc(-c2nc(N)ncc2-c2ccc(=O)n(C(C)C)n2)c1 [Example 199, 6-[2-Amino-4-(3-butoxyphenyl)-5-pyrimidinyl]-2-isopropyl-3(2H)-pyridazinone] | 130
36 | CC(C)COc1ccc(-c2nc(N)ncc2-c2ccc(=O)n(C(C)C)n2)cc1 [Example 200, 6-[2-Amino-4-(4-isobutoxyphenyl)-5-pyrimidinyl]-2-isopropyl-3(2H)-pyridazinone] | 166
37 | CC(C)COc1ccccc1-c1nc(N)ncc1-c1ccc(=O)n(C(C)C)n1 [Example 201, 6-[2-Amino-4-(2-isobutoxyphenyl)-5-pyrimidinyl]-2-isopropyl-3(2H)-pyridazinone] | 189
38 | CC(C)COc1cccc(-c2nc(N)ncc2-c2ccc(=O)n(C(C)C)n2)c1 [Example 202, 6-[2-Amino-4-(3-isobutoxyphenyl)-5-pyrimidinyl]-2-isopropyl-3(2H)-pyridazinone] | 137
